The values below are quoted from earlier work in patent US7557115B2, “Compounds, compositions, and methods” (Cytokinetics, Inc., priority 2002, dated 2009).

The term GI50 denotes the concentration giving 50% growth inhibition.

The subject of this series is A549 cells. As to conditions: concentration that decreases rate of cell growth by fifty percent.

`O=c1[nH]cc(F)c(=O)[nH]1` [5-fluorouracil]: the 50% growth inhibitory concentration (GI50) is 1000 nM.

As for `COc1cccc2c1C(=O)c1c(O)c3c(c(O)c1C2=O)C[C@@](O)(C(=O)CO)C[C@@H]3O[C@H]1C[C@H](N)[C@H](O)[C@H](C)O1` [doxorubicin], the GI50 is 63 nM.

With `CC(=O)O[C@H]1C(=O)[C@@]2(C)[C@H]([C@H](OC(=O)c3ccccc3)[C@]3(O)C[C@H](OC(=O)[C@H](O)[C@@H](NC(=O)c4ccccc4)c4ccccc4)C(C)=C1C3(C)C)[C@]1(OC(C)=O)CO[C@@H]1C[C@@H]2O` [paclitaxel], the concentration for 50% growth inhibition (GI50) is 4 nM.

As to `NC(=O)NO` [hydroxyurea], the GI50 is 500000 nM.
